Reference: patent publication US20230404887A1, “COMPOSITIONS TO LIMIT OR ELIMINATE THE PERCEPTION OF SWEAT MALODOR” (Firmenich SA, priority 2020, published 2023)

Assays:
[1] = Expert perfumer evaluation of malodor reduction, dynamic olfactometer, against 3M3SH; parameters: species or system human; details: for EFFECTIVE CONCENTRATION: MO 3M3SH held fixed at mid-intensity (0.5), headspace concentration providing an effective level; for EXPERT RATING: MO 3M3SH held fixed at mid-intensity (0.5 on scale 0-1), rating of degree of malodor reduction at the effective concentration
Experimental: (§1) The effectiveness of perfuming materials in compositions to reduce the perception of, for example, axillary sweat malodors, was evaluated by an expert perfumer by 1) selecting target axillary malodor components, 2) delivering target malodor components and candidate malodor reducing materials to the nose of an expert perfumer at carefully controlled concentrations, 3) having the expert perfumer identify the concentration at which malodor reduction was obtained, and 4) rating the degree of reduction achieved at the concentration identified in step 3.
(§2) In this method, a dynamic multi-channel olfactometer was used to precisely deliver known gas phase concentrations of the test materials, using forced evaporation, into a stream of air emanating from a smelling port. The appropriate concentration of the malodor component was established prior to its being mixed with the candidate malodor reducing substance. The concentration was set at a concentration sufficient to produce an intensity of 0.5 (mid-intensity) on a scale of 0-1. The expert perfumer then dynamically adjusted the concentration of the candidate malodor reducing substance to determine the effective concentration, while maintaining a fixed concentration of the malodor component. Once the appropriate concentration had been determined, the expert perfumer evaluated the perception of the mixtures repeatedly over a period of several minutes, taking breaks in between sniffs to avoid adaptation to the components being tested, before providing a rating.
(§3) Tests were performed in a forced-evaporation, dynamic olfactometer, with malodor component concentrations held fixed at a mid-intensity. Ratings of effectiveness were based in the following scale: −2 (significant increase in malodor), −1 (slight increase in malodor), 0 (no effect), 1 (slight malodor reduction), 2 (good malodor reduction), 3 (complete malodor reduction). The malodor (MO) component abbreviations are 3H3MHA (3-methyl-3-hydroxyhexanoic acid), 3M2HA (3-methyl-2-hexenoic acid), 3M3SH (3-methyl-3-sulphanylhexanol).

[2] = Expert perfumer evaluation of malodor reduction, dynamic olfactometer, against 3M2HA; parameters: species or system human; details: for EFFECTIVE CONCENTRATION: MO 3M2HA held fixed at mid-intensity (0.5), headspace concentration providing an effective level; for EXPERT RATING: MO 3M2HA held fixed at mid-intensity (0.5 on scale 0-1), rating of degree of malodor reduction at the effective concentration
Experimental: as §1, §2, §3

Compound	EFFECTIVE CONCENTRATION [1] [micrograms/L AIR]	EXPERT RATING [1]	EFFECTIVE CONCENTRATION [2] [micrograms/L AIR]	EXPERT RATING [2]
OC/C=C/c1ccccc1 [(2E)-3-PHENYL-2-PROPEN-1-OL]	6.50E−02	2		
Cc1ccc(C(C)C)c(O)c1 [THYMOL]	1.03E−01	3	5.17E−02	3
CCCCCCCC=O [OCTANAL]	3.08E−01	2	6.17E−01	3
CCCCCC1(C)CCC(C)(C)C1=O (racemic)			1.22E+00	2
COc1ccc2ccccc2c1 [2-METHOXYNAPHTHALENE]	5.00E−02	3	1.25E−02	3
C=CC(C)(CC/C=C(\C)CC)OC(C)=O (racemic) [(+−)-(6E)-3,7-dimethyl-1,6-nonadien-3-yl acetate]	6.67E+00	2		
CCC(C)(O)CCCC(C)C (racemic)			9.27E+00	2
C=CC(C)CCCC(C)(C)O (racemic)			4.33E+00	2
CC/C=C(\C)C(O)CCCCC (racemic) [(+−)-(E)-4-METHYL-3-DECEN-5-OL]	4.27E−01	3	2.13E−01	3
CC(=O)CCc1ccc(O)cc1 [4-(4-HYDROXYPHENYL)-2-BUTANONE]	6.00E−04	1	1.50E−04	3
COC(=O)/C=C/c1ccccc1 [METHYL (E)-3-PHENYL-2-PROPENOATE]	9.33E−02	2	7.00E−02	3
CCC(C)CCCC(C)(C)O (racemic)	1.08E+01	2	5.40E+00	2
CCC(C)c1ccc2ncccc2c1 (racemic) [(+−)-6-SEC-BUTYLQUINOLINE]	1.83E−02	3		
TRICYCLO[5.2.1.0(2,6)]DEC-3/4-EN-8-YL PROPANOATE	1.42E−01	2	7.08E−02	3
COc1ccc(COC(C)=O)cc1 [4-METHOXYBENZYL ACETATE]	2.37E+00	2	1.18E+00	3
CCc1occc(=O)c1O [2-ETHYL-3-HYDROXY-4(4H)-PYRANONE]	1.83E−02	2	1.83E−02	3
COC(=O)c1c(C)cc(O)c(C)c1O [METHYL 2,4-DIHYDROXY-3,6-DIMETHYLBENZOATE]	3.50E−03	3	3.50E−03	3
O=C1CCCCCCC/C=C/CCCCCCO1 [(10E)-OXACYCLOHEPTADEC-10-EN-2-ONE]	2.87E−01	2	7.17E−02	2

Compound	EFFECTIVE CONCENTRATION [1] [micrograms/L AIR]	EXPERT RATING [1]	EFFECTIVE CONCENTRATION [2] [micrograms/L AIR]	EXPERT RATING [2]
OCCc1ccccc1 [2-PHENYLETHANOL]	1.08E+00	2	5.42E−01	3
CC(C)=C[C@H]1C[C@@H](C)CCO1 (racemic) [(2RS,4SR)-4-METHYL-2-(2-METHYL-1-PROPEN-1-YL)TETRAHYDRO-2H-PYRAN]	6.83E−01	1	6.83E−01	2
CCCCCC#CC(=O)OC [METHYL 2-OCTYNOATE]	4.67E−01	3	4.67E−01	3
COC(Cc1ccccc1)OC [(2,2-DIMETHOXYETHYL)BENZENE]	3.92E+00	2	3.92E+00	3
CC1C/C=C/CCCCCCCCCC(=O)C1 (racemic) [(+−)-(5E)-3-METHYL-5-CYCLOPENTADECEN-1-ONE]	5.83E−01	1	2.33E−01	2
CCCCCCC/C=C\CCC=O [(4Z)-4-DODECENAL]	2.07E−04	1	1.03E−04	2
C=CCOC(=O)CCCCC [ALLYL HEXANOATE]	2.12E+00	3	1.06E+00	3
CCOC(=O)CC1(C)OCCO1 [ETHYL 2-METHYL-1,3-DIOXOLANE-2-ACETATE]			7.07E+00	2
CC(=O)CCc1ccccc1 [4-PHENYL-2-BUTANONE]	3.75E−01	2	7.50E−01	3
CCCCCCCCCC=O [DECANAL]	2.50E−01	2	5.00E−01	3
O=CCCc1ccccc1 [3-PHENYLPROPANAL]	2.60E+00	3	2.60E+00	3
CCCCCOC(=O)c1ccccc1O [PENTYL 2-HYDROXYBENZOATE]	5.00E−01	3		
CC(=O)/C=C/C1=C(C)CCCC1(C)C	1.17E−01	3	5.83E−02	3
CCCCCCCCCC(C)C=O (racemic) [(+−)-2-METHYLUNDECANAL]			2.33E−03	2
C=CCOC(=O)CCCCCC [ALLYL HEPTANOATE]			4.13E+00	3
C[C@H]1CCO[C@@H](c2ccccc2)C1 (racemic) [(2RS,4SR)-4-METHYL-2-PHENYLTETRAHYDRO-2H-PYRAN]	2.67E−01	3		
COc1ccc(C=O)cc1 [4-METHOXYBENZALDEHYDE]			6.83E−02	2
